# According to patent publication US20230039858A1, “COMPOSITIONS AND METHODS RELATED TO MOLECULAR CONJUGATION” (IntoCell, Inc., priority 2019, published 2023):
# What was measured:
# [1] = Plasma stability in human plasma, HPLC; assay type: in vitro ADME; conditions: 300 μM, 37° C., up to 7 days
# Protocol: (§1) Compound N-Ac-Cys-AMA-10 and methyl phenyl sulfone (used as a standard material) were dissolved in DMSO to make a concentration of 30 mM. Then, each of human plasma (Biochemed 752PR—SC-PMG) and mouse plasma (Biochemed 029-APSC-MP) were mixed with the N-Ac-Cys-AMA-10 and MPS to make a final concentration of N-Ac-Cys-AMA-10 and methyl phenyl sulfone 300 μM. The resulting plasma mixtures were incubated in a water bath at 37° C. Aliquots were taken before the reaction and on 1 day, 2 days, 4 days, and 7 days after the reaction, wherein each aliquot was 200 μL. To complete the reaction, a two-fold volume of acetonitrile was added, followed by brief vortexing, and centrifugation for plasma protein precipitation. Each supernatant obtained after centrifugation was collected and analyzed by HPLC.
# [2] = Plasma stability in mouse plasma, HPLC; assay type: in vitro ADME; conditions: 300 μM, 37° C., up to 7 days
# Protocol: as §1
# [3] = Relative reaction rate with N-Ac-cysteine (LC/MS); assay type: physicochemical; conditions: with N-acetyl-L-cysteine in PBS buffer/DMSO, 1 hour, room temperature; relative to Reference A = 1
# Protocol: To a homogeneous solutions of ‘reference A’, PyrMPS-1, and mMPS-4 (10 stock solution 10 mmol) in PBS buffer (870 μL) and DMSO (90 μL) was added N-acetyl-L-cysteine (10 stock solution 10 mmol) and stirred for 1 hour at room temperature. The resulting samples were checked for reaction rate using LC/MS.
SMILES,stability in human plasma [1],stability in mouse plasma [2],Relative reaction rate [3]
C#CCOCCOCCOCCNC(=O)c1cc(C(=O)CC(SC[C@H](NC(C)=O)C(=O)O)C(N)=O)cc(C(=O)NCCOCCOCCOCC#C)c1 (some centres unmarked) [N-Ac-Cys-AMA-10],high stability,high stability,–
"Cc1ccc(S(=O)(=O)CCC(=O)c2ccc(C(=O)NCCOCCOCCOCCOCCOCCN=[N+]=[N-])cc2)cc1 [Reference A, reference compound]",–,–,1 folds
COC(=O)c1cc(C(=O)CCS(=O)(=O)c2ccc(C)cc2)cc(C(=O)NCCOCCOCCOCCOCCOCCN=[N+]=[N-])c1 [mMPS-4],–,–,Increase 7 folds
Cc1ccc(S(=O)(=O)CCC(=O)c2cncc(C(=O)NCCOCCOCCOCCOCCOCCN=[N+]=[N-])c2)cc1 [pyrMSP-1],–,–,Increase 11.5 folds
